Laboratory results reported in PubChem BioAssay (NCI).
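The compound was tested at five concentrations on cells cultured in 96-well plates, with a 48-hour exposure period. GI50 = concentration required for 50% inhibition of growth. TGI denotes the concentration required for complete inhibition of growth.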

Tests used:
Test in all cases: growth of human tumour cells (NCI), 48 h
[1] = test system: K-562 leukemia
[2] = test system: A549 NSCLC
[3] = test system: DU-145 prostate
[4] = test system: RXF 393 renal
[5] = test system: HCT-15 colon
[6] = test system: MDA-MB-435
[7] = test system: HT29 colon
[8] = test system: SF-295 CNS
[9] = test system: SR leukemia
[10] = test system: A498 renal
[11] = test system: KM12 colon
[12] = test system: NCI-H460 lung
[13] = test system: PC-3 prostate
[14] = test system: OVCAR-4 ovarian
[15] = test system: NCI-H226 lung
[16] = test system: HS 578T breast
[17] = test system: COLO 205 colon
[18] = test system: SNB-19 CNS
[19] = test system: SK-MEL-28 melanoma
[20] = test system: HOP-62 NSCLC
[21] = test system: MDA-MB-231 breast
[22] = test system: SK-MEL-2 melanoma
[23] = test system: SF-268 CNS
[24] = test system: T-47D breast
[25] = test system: CCRF-CEM leukemia
[26] = test system: TK-10 renal
[27] = test system: UO-31 renal
[28] = test system: SK-OV-3 ovarian
[29] = test system: SF-539 CNS
[30] = test system: OVCAR-5 ovarian
[31] = test system: BT-549 breast
[32] = test system: UACC-62 melanoma
[33] = test system: HOP-92 NSCLC
[34] = test system: HCT-116 colon
[35] = test system: UACC-257 melanoma
[36] = test system: NCI-H23 lung
[37] = test system: IGROV1 ovarian
[38] = test system: NCI-H522 lung
[39] = test system: RPMI-8226 leukemia
[40] = test system: OVCAR-8 ovarian
[41] = test system: NCI/ADR-RES ovarian
[42] = test system: MOLT-4 leukemia
[43] = test system: 786-0 renal
[44] = test system: OVCAR-3 ovarian
[45] = test system: SNB-75 CNS
[46] = test system: CAKI-1 renal
[47] = test system: ACHN renal
[48] = test system: MCF7 breast
[49] = test system: EKVX NSCLC
[50] = test system: LOX IMVI melanoma
[51] = test system: SK-MEL-5 melanoma
[52] = test system: MALME-3M melanoma
[53] = test system: U251 CNS
[54] = test system: HCC-2998 colon
[55] = test system: M14 melanoma
[56] = test system: SN12C renal
[57] = test system: SW-620 colon

## COc1cccc2c1C(=O)c1c(O)c3c(c(O)c1C2=O)C[C@H](O)C[C@@H]3OC1CC(N)C(O)C(C)O1 (stereo partly specified)
[1]
  TGI: 10100 nM
[2]
  TGI: 14100 nM
[3]
  TGI: 11600 nM
[4]
  TGI: 25000 nM
[5]
  TGI: 58000 nM
[6]
  TGI: 8050 nM
[7]
  TGI: 14100 nM
[8]
  TGI: 7350 nM
[9]
  TGI: 229 nM
[10]
  TGI: 4500 nM
[11]
  TGI: 10100 nM
[12]
  TGI: 13700 nM
[13]
  TGI: 12000 nM
[14]
  TGI: 21400 nM
[15]
  TGI: 2810 nM
[16]
  TGI: 5970 nM
[17]
  TGI: 10300 nM
[18]
  TGI: 15200 nM
[19]
  TGI: 9130 nM
[20]
  TGI: 10500 nM
[21]
  TGI: 6050 nM
[22]
  TGI: 5410 nM
[23]
  TGI: 10600 nM
[24]
  TGI: 15300 nM
[25]
  TGI: 6060 nM
[26]
  TGI: 7150 nM
[27]
  TGI: 19700 nM
[28]
  TGI: 14800 nM
[29]
  TGI: 11200 nM
[30]
  TGI: 11800 nM
[31]
  TGI: 16000 nM
[32]
  TGI: 1820 nM
[33]
  TGI: 17600 nM
[34]
  TGI: 7880 nM
[35]
  TGI: 5150 nM
[36]
  TGI: 3180 nM
[37]
  TGI: 12400 nM
[38]
  TGI: 5860 nM
[39]
  TGI: 8800 nM
[40]
  TGI: 3640 nM
[41]
  TGI: 62300 nM
[42]
  TGI: 144 nM
[43]
  TGI: 14200 nM
[44]
  TGI: 7340 nM
[45]
  TGI: 15300 nM
[46]
  TGI: 4830 nM
[47]
  TGI: 3540 nM
[48]
  TGI: 21200 nM
[49]
  TGI: 20800 nM
[50]
  TGI: 2920 nM
[51]
  TGI: 2220 nM
[52]
  TGI: 3570 nM

## Cc1cc2c(cc1C)N(C(=O)CCl)CCN2C(=O)CCl
[53]
  GI50: 1390 nM
  TGI: 2880 nM
[1]
  GI50: 378 nM
  TGI: 2000 nM
[2]
  GI50: 2090 nM
  TGI: 4290 nM
[3]
  GI50: 1540 nM
  TGI: 2900 nM
[4]
  GI50: 237 nM
  TGI: 668 nM
[5]
  GI50: 450 nM
  TGI: 2420 nM
[6]
  GI50: 1020 nM
  TGI: 2690 nM
[54]
  GI50: 1780 nM
  TGI: 3300 nM
[7]
  GI50: 301 nM
  TGI: 943 nM
[8]
  GI50: 1960 nM
  TGI: 4130 nM
[9]
  GI50: 421 nM
  TGI: 2650 nM
[10]
  GI50: 1790 nM
  TGI: 3290 nM
[11]
  GI50: 1720 nM
  TGI: 3310 nM
[12]
  GI50: 1700 nM
  TGI: 3330 nM
[13]
  GI50: 1430 nM
  TGI: 2890 nM
[14]
  GI50: 1440 nM
  TGI: 3370 nM
[15]
  GI50: 559 nM
  TGI: 1800 nM
[16]
  GI50: 1750 nM
  TGI: 4960 nM
[17]
  GI50: 484 nM
  TGI: 1020 nM
[18]
  GI50: 1810 nM
  TGI: 4100 nM
[19]
  GI50: 1560 nM
  TGI: 2960 nM
[20]
  GI50: 1710 nM
  TGI: 3370 nM
[21]
  GI50: 1700 nM
  TGI: 3920 nM
[22]
  GI50: 1810 nM
  TGI: 4220 nM
[23]
  GI50: 1820 nM
  TGI: 3890 nM
[55]
  GI50: 1080 nM
  TGI: 2520 nM
[24]
  GI50: 1400 nM
  TGI: 3940 nM
[25]
  GI50: 282 nM
  TGI: 856 nM
[26]
  GI50: 1790 nM
  TGI: 4760 nM
[27]
  GI50: 1520 nM
  TGI: 3480 nM
[28]
  GI50: 1900 nM
  TGI: 3980 nM
[29]
  GI50: 1650 nM
  TGI: 3240 nM
[56]
  GI50: 754 nM
  TGI: 2670 nM
[30]
  GI50: 1500 nM
  TGI: 3080 nM
[31]
  GI50: 1310 nM
  TGI: 2700 nM
[32]
  GI50: 657 nM
  TGI: 2290 nM
[33]
  GI50: 1600 nM
  TGI: 3200 nM
[34]
  GI50: 186 nM
  TGI: 409 nM
[35]
  GI50: 1300 nM
  TGI: 2710 nM
[36]
  GI50: 1760 nM
  TGI: 3800 nM
[37]
  GI50: 620 nM
  TGI: > 19900 nM
[38]
  GI50: 178 nM
  TGI: 348 nM
[39]
  GI50: 571 nM
  TGI: 2700 nM
[40]
  GI50: 644 nM
  TGI: 6130 nM
[41]
  GI50: 746 nM
  TGI: 5900 nM
[42]
  GI50: 367 nM
  TGI: 1740 nM
[43]
  GI50: 657 nM
  TGI: 1580 nM
[44]
  GI50: 1110 nM
  TGI: 2460 nM
[45]
  GI50: 1480 nM
  TGI: 3100 nM
[46]
  GI50: 1780 nM
  TGI: 4080 nM
[47]
  GI50: 638 nM
  TGI: 2080 nM
[48]
  GI50: 451 nM
  TGI: 2020 nM
[49]
  GI50: 1990 nM
  TGI: 4640 nM
[50]
  GI50: 173 nM
  TGI: 365 nM
[57]
  GI50: 204 nM
  TGI: 420 nM
[51]
  GI50: 640 nM
  TGI: 1930 nM
[52]
  GI50: 1570 nM
  TGI: 4500 nM
